Values of other authors in patent US20140065213A1, “Sustained Release Paracetamol Formulations” (GlaxoSmithKline, LLC, priority 2011, published 2014).

For `CC(=O)Nc1ccc(O)cc1` [paracetamol, N-acetyl-p-aminophenol], the “tmax (maximum plasma concentration)” value (oral doses of conventional immediate release tablets) is given as 0.5 to 1.5 h and the elimination half-life (reported) is given as 1.9 to 2.5 h.
